Data reported in patent US6369236B1, “Imidazole derivatives with biphenylsulfonyl substitution method for preparing them and their use as a drug or diagnostic agent” (Aventis Pharma Deutschland GmbH, priority 1998, dated 2002).

Columns and labels:
[1] = tested on: Na+-dependent Cl-/HCO3- exchanger (NCBE); test: Inhibition of the Na+-dependent Cl-/HCO3- exchanger (NCBE) in human endothelial cells (BCECF fluorescence, FLIPR, pHi recovery); type: cell-based; settings: inhibitor concentration 10 μM; human endothelial cells (ECV-304); 50 μM HOE 642 present; 35° C., 2 minutes
Description: Inhibition of the Na^+-dependent Cl^−/HCO3^− Exchanger (NCBE) in Human Endothelial Cells
Human endothelial cells (ECV-304) were detached from culture bottles with the aid of trypsin/EDTA buffer (0.05/0.02% in phosphate buffer) and, after centrifugation (100 g, 5 min), taken up in a buffered salt solution (mmol/l: 115 NaCl, 20 NH4Cl, 5 KCl, 1 CaCl2, 1 MgSO4, 20 N-(2-hydroxyethyl)piperazine-N-2-ethanesulfonic acid (HEPES), 5 glucose and 1 g/l of bovine serum albumin; pH 7.4). This cell suspension was incubated at 37° C. for 20 min with 5 μM BCECF-acetoxymethyl ester. The cells were then washed and resuspended in a sodium- and bicarbonate-free buffer solution (mmol/l: 5 HEPES, 133.8 choline chloride, 4.7 KCl, 1.25 MgCl2, 0.97 K2HPO4, 0.23 KH2PO4, 5 glucose; pH 7.4).
For subsequent fluorescence measurement in an FLIPR (Fluorescent Imaging Plate Reader) 100 μl of this cell suspension having 20,000 cells in each case were pipetted per well into a 96-well microtiter plate and this microtiter plate was centrifuged (100 g, 5 min).
In the FLIPR, 100 μl of buffer solution in each case were then removed from a further pretreated microtiter plate and pipetted into each of the 96 wells of the measurement plate. A bicarbonate- and sodium-containing buffer solution (mmol/l: 5 HEPES, 93.8 NaCl, 40 NaHCO3, 4.7 KCl, 1.25 CaCl2, 1.25 MgCl2, 0.97 Na2HPO4, 0.23 NaH2PO4, 5 glucose; pH 7.4) which contained 50 μM HOE 642 was used for a 100% control, i.e. a recovery of the intracellular pH (pHi) via the NCBE. For a 0% control, i.e. no pHi recovery at all, a bicarbonate-free, sodium-containing buffer solution (mmol/l: 5 HEPES, 133.8 NaCl, 4.7 KCl, 1.25 CaCl2, 1.25 MgCl2, 0.97 Na2HPO4, 0.23 NaH2PO4, 5 glucose; pH 7.4) was employed, to which 50 μM HOE 642 were likewise added. The compounds according to the invention were added to the sodium- and bicarbonate-containing solution in various concentrations.
After addition of the buffer solutions to the dye-loaded, acidified cells in the measurement plate, the rise in the fluorescence intensity, which corresponded to a rise in the pHi, in each well of the microtiter plate was determined. The kinetics were in this case recorded at 35° C. for a period of 2 minutes.
The increase in the fluorescence intensities for different concentrations of the compounds according to the invention was related to the two controls and from this the inhibitory action of the substances was determined.

Row | SMILES | melting point | Residual activity of the NCBE at an inhibitor concentration of 10 μM (in %) [1] [%]
1 | COCCOc1cc(-c2ccccc2S(=O)(=O)NC#N)ccc1Cn1c(-c2ccccc2)nc(OCCOC)c1C=O [Example 4, 4′-[5-Formyl-4-(2-methoxyethoxy)-2-phenylimidazol-1-ylmethyl]-3′-(2-methoxyethoxy)biphenyl-2-sulfonylcyanamide] | 162 °C | 13.5
2 | COCCOc1nc(-c2ccccc2)n(Cc2ccc(-c3ccccc3S(=O)(=O)NC#N)cc2Cl)c1C=O [Example 2, 3′-Chloro-4′-[5-formyl-4-(2-methoxyethoxy)-2-phenylimidazol-1-ylmethyl]-biphenyl-2-sulfonylcyanamide] | 195 °C (dec.) | 18.9
3 | COCCOc1nc(-c2ccc(C(C)C)cc2)n(Cc2ccc(-c3ccccc3S(=O)(=O)NC#N)cc2)c1C=O [Example 3, 4′-[5-Formyl-2-(4-isopropylphenyl)-4-(2-methoxyethoxy)imidazol-1-ylmethyl]biphenyl-2-sulfonylcyanamide] |  | 29.6
4 | COCCOc1nc(-c2ccccc2)n(Cc2ccc(-c3ccccc3S(=O)(=O)NC#N)cc2S(C)(=O)=O)c1C=O [Example 1, 4′-[5-Formyl-4-(2-methoxyethoxy)-2-phenylimidazol-1-ylmethyl]-3′-methanesulfonylbiphenyl-2-sulfonylcyanamide] | > 270 °C | 9.8
